{
  "source": "patent US9034791B2",
  "about": "“Method for controlling noxious organisms” (Sumitomo Chemical Company, Limited, priority 2012, dated 2015)",
  "format_in_all_cases": "in vivo",
  "conditions_in_all_cases": "day 7 after sowing, scale 0 to 100",
  "key": {"[1]": {"tested_on": "Ivyleaf morningglory", "test": "Pot test, herbicidal effect with fludioxonil-treated corn seeds and soil-applied PPO inhibitor", "protocol": "(§1) The evaluation of the herbicidal effect is classified into 0 to 100, in which the numeral “0” indicates no or little difference in the state of germination or growth of test weeds as compared with the untreated weeds at the time of the investigation, and the numeral “100” indicates the complete death of the test plants or the complete suppression of their germination or growth.\n(§2) In a plastic cup of 100 mm in inside diameter and 40 mm in height, 19.8 mg of a fludioxonil suspension (a suspension containing 20% of fludioxonil, trade name: Savior flowable, manufactured by Syngenta Japan K. K.) and 40 corn seeds were placed. The plastic cup was shaken by the hand so that the fludioxonil suspension was attached to the corn seeds. The weight of 40 corn seeds was 13.2 g, and the amount of fludioxonil by the above treatment was calculated as 30 g per 100 kg of the corn seeds.\nIn the same manner, 193.5 mg of the fludioxonil suspension was attached to 40 corn seeds. The weight of 40 corn seeds was 12.9 g, and the amount of fludioxonil by the above treatment was calculated as 300 g per 100 kg of the corn seeds.\n(§3) A soil was packed in a plastic pot of 120 mm in inside diameter×80 mm in height. The above treated corn seeds were sown in this pot at a rate of two seeds per pot, and the seeds of ivyleaf morningglory were sown at a rate of four seeds per pot. On the day of sowing the corn seeds and after sowing the corn seeds, an aqueous diluted solution (113 mg of active ingredient/L or 225 mg of active ingredient/L) of a flumioxazin granular wettable powder (a granular wettable powder containing 51% of flumioxazin, trade name: Valor SX, manufactured by Valent USA), an aqueous diluted solution (226 mg of active ingredient/L or 1130 mg of active ingredient/L) of a sulfentrazone granular wettable powder (a granular wettable powder containing 75% of sulfentrazone, trade name: Cover, manufactured by DuPont), or an aqueous diluted solution (113 mg/L or 226 mg/L) of saflufenacil was uniformly sprayed on the soil surface with a sprayer so as to apply the amount described in Tables 4 to 6. The aqueous diluted solution of saflufenacil was prepared by dissolving a predetermined amount of saflufenacil in acetone containing 2% (w/v) of Tween 20, and diluting this solution with water so as to have an acetone concentration of 10% by volume.\nOn day 7 after sowing the seeds of corn and ivyleaf morningglory, the herbicidal effect was investigated."}, "[2]": {"tested_on": "Ivyleaf morningglory", "test": "Pot test, herbicidal effect with fludioxonil-treated soybean seeds and soil-applied PPO inhibitor", "protocol": "as §1\nas §2, with “14.25” for “19.8”, “soybean” for “corn”, “9.55” for “13.2”\nIn the same manner, 151.4 mg of the fludioxonil suspension was attached to 40 soybean seeds. The weight of 40 soybean seeds was 10.1 g, and the amount of fludioxonil by the above treatment was calculated as 300 g per 100 kg of the soybean seeds.\nas §3, with “soybean” for “corn”, “1” for “4”, “3.” for “6.”\nOn day 7 after sowing the seeds of soybean and ivyleaf morningglory, the herbicidal effect was investigated."}, "[3]": {"tested_on": "Ivyleaf morningglory", "test": "Pot test, herbicidal effect with fludioxonil-treated cotton seeds and soil-applied PPO inhibitor", "protocol": "as §1\nIn a plastic cup of 100 mm in inside diameter and 40 mm in height, 8.55 mg of a fludioxonil suspension (a suspension containing 20% of fludioxonil, trade name: Savior flowable, manufactured by Syngenta Japan K. K.) and 40 cotton seeds were placed. The plastic cup was shaken by the hand so that the fludioxonil suspension was attached to the cotton seeds. The weight of 40 cottonseeds was 5.7 g, and the amount of fludioxonil by the above treatment was calculated as 30 g per 100 kg of the cotton seeds.\nIn the same manner, 84.8 mg of the fludioxonil suspension was attached to 40 cotton seeds. The weight of 40 cotton seeds was 5.65 g, and the amount of fludioxonil by the above treatment was calculated as 300 g per 100 kg of the cotton seeds.\nas §3, with “cotton” for “treated corn”, “cotton” for “corn”, “7” for “4”, “9.” for “6.”\nOn day 7 after sowing the seeds of cotton and ivyleaf morningglory, the herbicidal effect was investigated."}, "[4]": {"conditions": "fludioxonil None, PPO inhibitor 100 g/ha soil surface"}, "[5]": {"conditions": "fludioxonil None, PPO inhibitor 500 g/ha soil surface"}, "[6]": {"conditions": "fludioxonil 30 g/100 kg of seeds, PPO inhibitor None"}, "[7]": {"conditions": "fludioxonil 300 g/100 kg of seeds, PPO inhibitor None"}, "[8]": {"conditions": "fludioxonil None, PPO inhibitor 50 g/ha soil surface"}},
  "data": [
    {"smiles": "Cc1nn(-c2cc(NS(C)(=O)=O)c(Cl)cc2Cl)c(=O)n1C(F)F", "note": "[sulfentrazone]", "values": [
      {"measurement": "Herbicidal effect Ivyleaf morningglory", "setting": "[1]; [4]", "result": 40},
      {"measurement": "Herbicidal effect Ivyleaf morningglory", "setting": "[2]; [4]", "result": 20},
      {"measurement": "Herbicidal effect Ivyleaf morningglory", "setting": "[2]; [5]", "result": 60},
      {"measurement": "Herbicidal effect Ivyleaf morningglory", "setting": "[3]; [5]", "result": 30}
    ]},
    {"smiles": "N#Cc1c[nH]cc1-c1cccc2c1OC(F)(F)O2", "note": "[fludioxonil]", "values": [
      {"measurement": "Herbicidal effect Ivyleaf morningglory", "setting": "[1]; [6]", "result": 0},
      {"measurement": "Herbicidal effect Ivyleaf morningglory", "setting": "[1]; [7]", "result": 0},
      {"measurement": "Herbicidal effect Ivyleaf morningglory", "setting": "[2]; [6]", "result": 0},
      {"measurement": "Herbicidal effect Ivyleaf morningglory", "setting": "[2]; [7]", "result": 0},
      {"measurement": "Herbicidal effect Ivyleaf morningglory", "setting": "[3]; [6]", "result": 0},
      {"measurement": "Herbicidal effect Ivyleaf morningglory", "setting": "[3]; [7]", "result": 0}
    ]},
    {"smiles": "C#CCN1C(=O)COc2cc(F)c(N3C(=O)C4=C(CCCC4)C3=O)cc21", "note": "[flumioxazin]", "values": [
      {"measurement": "Herbicidal effect Ivyleaf morningglory", "setting": "[1]; [8]", "result": 20},
      {"measurement": "Herbicidal effect Ivyleaf morningglory", "setting": "[1]; [4]", "result": 50},
      {"measurement": "Herbicidal effect Ivyleaf morningglory", "setting": "[2]; [4]", "result": 20},
      {"measurement": "Herbicidal effect Ivyleaf morningglory", "setting": "[3]; [4]", "result": 30}
    ]},
    {"smiles": "CC(C)N(C)S(=O)(=O)NC(=O)c1cc(-n2c(=O)cc(C(F)(F)F)n(C)c2=O)c(F)cc1Cl", "note": "[saflufenacil]", "values": [
      {"measurement": "Herbicidal effect Ivyleaf morningglory", "setting": "[1]; [4]", "result": 30},
      {"measurement": "Herbicidal effect Ivyleaf morningglory", "setting": "[2]; [4]", "result": 40},
      {"measurement": "Herbicidal effect Ivyleaf morningglory", "setting": "[3]; [8]", "result": 30},
      {"measurement": "Herbicidal effect Ivyleaf morningglory", "setting": "[3]; [4]", "result": 40}
    ]}
  ]
}
